In patent US20240317758A1 (Halia Therapeutics, Inc., priority 2021, published 2024):
pIC50: −log10 of the molar value.

biological target: T1, full-length recombinant human NEK7 (Homo sapiens, UniProt Q8TDX7); assay: NEK7 enzymatic assay; assay type: biochemical; details: recombinant human NEK7, casein substrate, radiolabelled ATP
T1 construct: full-length recombinant human NEK7; GST (N); purchased SignalChem NO9-10G; host or cells: Sf9 insect cells (baculovirus)
Procedure: Casein substrate (from bovine milk, hydrolyzed and partially dephosphorylated mixture of α, β and κ caseins, obtained from Sigma Aldrich, catalogue #C4765, diluted in distilled water to a final concentration of 1 mg/mL) and full-length recombinant human NEK7 (expressed by baculovirus in Sf9 insect cells using a N-terminal GST tag, obtained from SignalChem, catalogue #NO9-10G, 0.1 μg/μL) were mixed in assay buffer (20 mM Hepes pH 7.5, 10 mM MgCl2, 1 mM EGTA, 0.02% Brij35, 0.02 mg/ml BSA, 0.1 mM Na3VO4, 2 mM DTT, 1% DMSO). Compounds of interest (serial 3-fold dilution in DMSO from 10 μM to 0.5 nM) or vehicle (1% DMSO) were dispensed into the kinase reaction mixture by Acoustic technology (Echo550; nanoliter range). After incubation at room temperature for 20 minutes, the kinase reaction was initiated by addition of [^33P]-ATP (specific activity 10 μCi/μl) and the mixture was incubated at room temperature for 2 hours. The reaction was then stopped by spotting the reaction mixture on strips of phosphocellulose P81 paper. Following washing, the radioactivity of the P81 paper was measured and kinase activity data were expressed as the percent remaining kinase activity in test samples compared to vehicle reactions. IC50 values and curve fits were obtained using Prism (GraphPad Software).
Casein substrate (from bovine milk, hydrolyzed and partially dephosphorylated mixture of α, β and κ caseins, obtained from Sigma Aldrich, catalogue #C4765, diluted in distilled water to a final concentration of 1 mg/mL, assay concentration 20 μM) and full-length recombinant human Nek7 (expressed by baculovirus in Sf9 insect cells using a N-terminal GST tag, obtained from SignalChem, catalogue #NO9-10G, 0.1 μg/μL, assay concentration 70 nM) were mixed in assay buffer (20 mM Hepes pH 7.5, 10 mM MgCl2, 1 mM EGTA, 0.02% Brij35, 0.02 mg/ml BSA, 0.1 mM […], 2 mM DTT, 1% DMSO). Compounds of interest (in DMSO, serial 3-fold dilution from 10 μM to 0.5 nM) or control (1% DMSO) were dispensed into the kinase reaction mixture by Acoustic technology (Echo550; nanoliter range). After incubation at room temperature for 20 minutes, the kinase reaction was initiated by addition of [^32P]-ATP (Specific activity 10 μCi/μl) and the mixture was incubated at room temperature for 2 hours. The reaction was then stopped by spotting the reaction mixture on strips of phosphocellulose P81 paper. Following washing, the radioactivity of the P81 paper was measured and kinase activity data were expressed as the percent remaining kinase activity in test samples compared to vehicle (dimethyl sulfoxide) reactions. IC50 values and curve fits were obtained using Prism (GraphPad Software).

T1 sequence (Q8TDX7 whole entry): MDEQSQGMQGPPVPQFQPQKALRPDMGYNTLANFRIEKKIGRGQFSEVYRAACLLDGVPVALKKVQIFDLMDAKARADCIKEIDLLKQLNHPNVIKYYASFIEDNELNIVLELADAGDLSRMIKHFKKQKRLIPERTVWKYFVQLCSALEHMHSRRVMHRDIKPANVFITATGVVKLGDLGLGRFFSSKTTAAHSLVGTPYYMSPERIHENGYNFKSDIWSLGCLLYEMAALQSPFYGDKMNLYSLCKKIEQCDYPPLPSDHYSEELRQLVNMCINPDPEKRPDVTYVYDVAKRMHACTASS

| pIC50 | Structure (SMILES) |
| --- | --- |
| 5.70 to 6.30 | CN1CCN(Cc2ccc(NC(=O)Nc3ccc(-c4cn(C5CC5)c5ncnc(N)c45)cc3F)cc2C(F)(F)F)CC12CC2 [Example I-73, 1-(4-(4-amino-7-cyclopropyl-7H-pyrrolo[2,3-d]pyrimidin-5-yl)-2-fluorophenyl)-3-(4-((4-methyl-4,7-diazaspiro[2.5]octan-7-yl)methyl)-3-(trifluoromethyl)phenyl)urea] |
| < 5.70 | Nc1ncnc2c1c(-c1ccc(NC(=O)Nc3ccc(CN4CCOCC4)c(F)c3)c(F)c1)cn2C1CC1 [Example I-2, 1-(4-(4-amino-7-cyclopropyl-7H-pyrrolo[2,3-d]pyrimidin-5-yl)-2-fluorophenyl)-3-(3-fluoro-4-(morpholinomethyl)phenyl)urea] |
| > 7.00 | CCN1CCC(Oc2ccc(NC(=O)Nc3ccc(-c4cn(C5CC5)c5ncnc(N)c45)cc3F)cc2C(F)(F)F)CC1 [Example I-88, 1-(4-(4-amino-7-cyclopropyl-7H-pyrrolo[2,3-d]pyrimidin-5-yl)-2-fluorophenyl)-3-(4-((1-ethylpiperidin-4-yl)oxy)-3-(trifluoromethyl)phenyl)urea] |
| 5.70 to 6.30 | Nc1ncnc2c1c(-c1ccc(NC(=O)Nc3ccc(CN4CCCCC4)c(C(F)(F)F)c3)c(F)c1)cn2C1CC1 [Example I-95, 1-(4-(4-amino-7-cyclopropyl-7H-pyrrolo[2,3-d]pyrimidin-5-yl)-2-fluorophenyl)-3-(4-(piperidin-1-ylmethyl)-3-(trifluoromethyl)phenyl)urea] |
| 6.30 to 7.00 | CN1CCN(Cc2ccc(NC(=O)Nc3ccc(-c4cn(C5CC5)c5ncnc(N)c45)cc3Cl)cc2C(F)(F)F)CC1 [Example I-35, 1-(4-(4-amino-7-cyclopropyl-7H-pyrrolo[2,3-d]pyrimidin-5-yl)-2-chlorophenyl)-3-(4-((4-methylpiperazin-1-yl)methyl)-3-(trifluoromethyl)phenyl)urea] |
| 6.30 to 7.00 | CN1CCC(Oc2ccc(NC(=O)Nc3ccc(-c4cn(C5CC5)c5ncnc(N)c45)cc3F)cc2C(F)(F)F)C(F)C1 (single isomer, unassigned) [Example I-89, 1-(4-(4-amino-7-cyclopropyl-7H-pyrrolo[2,3-d]pyrimidin-5-yl)-2-fluorophenyl)-3-(4-((3-fluoro-1-methylpiperidin-4-yl)oxy)-3-(trifluoromethyl)phenyl)urea] |
| 6.30 to 7.00 | Nc1ncnc2c1c(-c1ccc(NC(=O)Nc3ccc(OC4CCN(C5COC5)CC4F)c(C(F)(F)F)c3)c(F)c1)cn2C1CC1 (single isomer, unassigned) [Example I-92, 1-(4-(4-amino-7-cyclopropyl-7H-pyrrolo[2,3-d]pyrimidin-5-yl)-2-fluorophenyl)-3-(4-((3-fluoro-1-(oxetan-3-yl)piperidin-4-yl)oxy)-3-(trifluoromethyl)phenyl)urea] |
| < 5.70 | CN1CC2(C1)CN(Cc1ccc(NC(=O)Nc3ccc(-c4cn(C5CC5)c5ncnc(N)c45)cc3F)cc1C(F)(F)F)C2 [Example I-7, 1-(4-(4-amino-7-cyclopropyl-7H-pyrrolo[2,3-d]pyrimidin-5-yl)-2-fluorophenyl)-3-(4-((6-methyl-2,6-diazaspiro[3.3]heptan-2-yl)methyl)-3-(trifluoromethyl)phenyl)urea] |
| 6.30 to 7.00 | CN1CCN(Cc2ccc(NC(=O)Nc3ccc(-c4cn(C5CC5)c5ncnc(N)c45)cc3F)cc2Cl)CC1 [Example I-37, 1-(4-(4-amino-7-cyclopropyl-7H-pyrrolo[2,3-d]pyrimidin-5-yl)-2-fluorophenyl)-3-(3-chloro-4-((4-methylpiperazin-1-yl)methyl)phenyl)urea] |
| < 5.70 | Cc1cc(NC(=O)Nc2ccc(-c3cn(C4CC4)c4ncnc(N)c34)cc2F)ccc1CN1CCN(C)CC1 [Example I-39, 1-(4-(4-amino-7-cyclopropyl-7H-pyrrolo[2,3-d]pyrimidin-5-yl)-2-fluorophenyl)-3-(3-methyl-4-((4-methylpiperazin-1-yl)methyl)phenyl)urea] |
